{
  "source": "patent US4103008A",
  "about": "“7[2(2,3 Dioxopiperazin-1-yl-carbonylamino)substituted 2 phenylacetamido]-3-2'-thiadiazolyl cephalosporanic acid derivatives” (priority 1976, dated 1978)",
  "key": {"[1]": {"test_system": "Pseudomonas strain C73-63", "assay": "In vitro antibacterial activity (MIC)", "type": "cell-based", "conditions": "C7363"}, "[2]": {"test_system": "Salmonella enteritidis No. 11", "assay": "In vitro antibacterial activity (MIC)", "type": "cell-based", "conditions": "Salmonella enterica"}, "[3]": {"test_system": "Enterobacter strain C73-17", "assay": "In vitro antibacterial activity (MIC)", "type": "cell-based", "conditions": "C7317"}, "[4]": {"test_system": "Bacillus substilis ATCC 6633", "assay": "In vitro antibacterial activity (MIC)", "type": "cell-based", "conditions": "ATCC6633"}, "[5]": {"test_system": "Staphylococcus aureus FDA 209NIH, P-J C-1", "assay": "In vitro antibacterial activity (MIC)", "type": "cell-based"}, "[6]": {"test_system": "Vibrio parahaemolyticus K - 5", "assay": "In vitro antibacterial activity (MIC)", "type": "cell-based", "conditions": "K5"}, "[7]": {"test_system": "Streptococcus faecalis ATCC 8043", "assay": "In vitro antibacterial activity (MIC)", "type": "cell-based", "conditions": "Enterococcus faecalis, ATCC8043"}, "[8]": {"test_system": "Klebsilla pneumoniae", "assay": "In vitro antibacterial activity (MIC)", "type": "cell-based"}, "[9]": {"test_system": "Shigella dysenteriae shigae", "assay": "microbe, parasite or virus in culture", "type": "cell-based"}, "[10]": {"test_system": "Vibrio parahaemolyticus K - 3", "assay": "In vitro antibacterial activity (MIC)", "type": "cell-based", "conditions": "K3"}, "[11]": {"assay": "Serum concentration and accumulative urinary excretion in rabbit", "conditions": "in vivo, im; for concentration at 0.5 h: after 30 mins.", "method": "(§1) Given below are the test results of in vitro antibacterial activity studies, serum concentrations and accumulative urinary excretions in rabbits and the protecting effects in mice, of some representative compounds of the invention.\n(§2) The compounds used in the tests are shown in the following Table 1, but all of these compounds are in the form of the sodium salt.\nEach of the test compounds (20 mg/kg) was intramuscularly administered to one group of 3 rabbits, and the amounts of antibiotics were measured by a conventional method, using Sarcina lutea."}, "[12]": {"test_system": "Salmonella strain C73-1", "assay": "In vitro antibacterial activity (MIC)", "type": "cell-based", "conditions": "C731", "text": "as §1, §2"}, "[13]": {"test_system": "Pseudomonas strain C73-83", "assay": "In vitro antibacterial activity (MIC)", "type": "cell-based", "conditions": "C7383", "text": "as §1, §2"}, "[14]": {"test_system": "Salmonella strain C 73-30", "assay": "In vitro antibacterial activity (MIC)", "type": "cell-based", "conditions": "C7330", "text": "as §1, §2"}, "[15]": {"test_system": "Proteus morganii kono", "assay": "In vitro antibacterial activity (MIC)", "type": "cell-based", "conditions": "Morganella morganii"}, "[16]": {"test_system": "Serratia strain No. 2", "assay": "In vitro antibacterial activity (MIC)", "type": "cell-based"}, "[17]": {"test_system": "Serratia strain No. 1", "assay": "In vitro antibacterial activity (MIC)", "type": "cell-based"}, "[18]": {"test_system": "Pseudomonas aeruginosa C73-2", "assay": "In vitro antibacterial activity (MIC)", "type": "cell-based", "conditions": "C732"}, "[19]": {"test_system": "Escherichia coli C 73-1", "assay": "In vitro antibacterial activity (MIC)", "type": "cell-based", "conditions": "C731"}, "[20]": {"test_system": "Pseudomonas aerugenosa E 2 strain", "assay": "ED50 in Pseudomonas infection in mice", "type": "in vivo", "conditions": "ICR-JCL mouse, male, 20g; P. aerugenosa E 2 3.6 × 10^4 intraperitoneal; compound intramuscular after 2 hrs.; ED50 after 7 days; sodium salts", "text": "as §1, §2\nPseudomonas aerugenosa E 2 strain (3.6 × 10^4) was intraperitonealy injected to each group of 10 of ICR-JCL mouse (male, 20g). After 2 hrs., each of the test compounds was intramuscularly administered to the infected mice and the ED50 values were measured after 7 days."}, "[21]": {"test_system": "Proteus morganii C73-23", "assay": "In vitro antibacterial activity (MIC)", "type": "cell-based", "conditions": "Morganella morganii, C7323"}, "[22]": {"test_system": "Escherichia coli C 73-4", "assay": "In vitro antibacterial activity (MIC)", "type": "cell-based", "conditions": "C734"}, "[23]": {"conditions": "20 mg/kg intramuscular, sodium salts, Sarcina lutea assay"}, "[24]": {"conditions": "Pseudomonas aeruginosa C-73-2, read-out: Mic value against Pseudomonas aeruginosa C-73-2"}},
  "note": "Where two headings read alike, the source gives them in different places.",
  "data": [
    {"smiles": "CCN1CCN(C(=O)N[C@@H](C(=O)NC2C(=O)N3C(C(=O)[O-])=C(CSc4nncs4)CS[C@H]23)c2ccc(O)cc2)C(=O)C1=O.[Na+]", "note": "(single isomer, unassigned)", "values": [
      {"measurement": "MIC", "setting": "[1]; Pseudomonas", "value": 1.56, "unit": "mg/L"},
      {"measurement": "MIC", "setting": "[2]; ENTERITIDIS", "value": "< 0.05", "unit": "mg/L"},
      {"measurement": "MIC", "setting": "[3]; Enterobacter", "value": 25, "unit": "mg/L"},
      {"measurement": "MIC", "setting": "[4]; Bacillus", "value": 0.78, "unit": "mg/L"},
      {"measurement": "MIC", "setting": "[5]; Staphylococcus aureus", "value": 0.39, "unit": "mg/L"},
      {"measurement": "MIC", "setting": "[6]; Vibrio parahaemolyticus", "value": 6.25, "unit": "mg/L"},
      {"measurement": "MIC", "setting": "[7]", "value": 0.78, "unit": "mg/L"},
      {"measurement": "MIC", "setting": "[8]", "value": 0.1, "unit": "mg/L"},
      {"measurement": "MIC", "setting": "[9]", "value": "< 0.05", "unit": "mg/L"},
      {"measurement": "MIC", "setting": "[10]; Vibrio parahaemolyticus", "value": 6.25, "unit": "mg/L"},
      {"measurement": "concentration at 0.5 h", "setting": "[11]; [23]", "value": 52.8, "unit": "µg/mL"},
      {"measurement": "dose excreted at 6 h", "setting": "[11]; 20 mg/kg intramuscular, after 6 hrs., sodium salts, Sarcina lutea assay, read-out: ACCUMULATIVE URINARY EXCRETION", "value": 33.4, "unit": "%"},
      {"measurement": "MIC", "setting": "[12]; Salmonella", "value": 0.39, "unit": "mg/L"},
      {"measurement": "MIC", "setting": "[13]; Pseudomonas", "value": 25, "unit": "mg/L"},
      {"measurement": "MIC", "setting": "[14]; Salmonella", "value": 0.39, "unit": "mg/L"},
      {"measurement": "MIC", "setting": "[15]", "value": 1.56, "unit": "mg/L"},
      {"measurement": "MIC", "setting": "[16]; Serratia, NO.2", "value": 3.13, "unit": "mg/L"},
      {"measurement": "MIC", "setting": "[17]; Serratia, NO.1", "value": 3.13, "unit": "mg/L"},
      {"measurement": "MIC", "setting": "[18]; Pseudomonas aeruginosa", "value": 6.25, "unit": "mg/L"},
      {"measurement": "MIC", "setting": "[19]; Escherichia coli", "value": 1.56, "unit": "mg/L"},
      {"measurement": "ED50 in Pseudomonas infection in mice", "setting": "[20]", "value": 3.0, "unit": "mg/mouse"},
      {"measurement": "MIC", "setting": "[21]", "value": 6.25, "unit": "mg/L"},
      {"measurement": "MIC", "setting": "[22]; Escherichia coli", "value": 0.39, "unit": "mg/L"}
    ]},
    {"smiles": "CCN1CCN(C(=O)N[C@@H](C(=O)NC2C(=O)N3C(C(=O)O)=C(CSc4nnc(C)s4)CSC23)c2ccc(O)c(Cl)c2)C(=O)C1=O", "note": "(single isomer, unassigned) [Example 7]", "values": [
      {"measurement": "MIC", "setting": "[18]; [24]", "value": 12.5, "unit": "mg/L"}
    ]},
    {"smiles": "CCN1CCN(C(=O)N[C@@H](C(=O)NC2C(=O)N3C(C(=O)O)=C(CSc4nnc(C)s4)CS[C@H]23)c2ccc(O)cc2)C(=O)C1=O", "note": "(single isomer, unassigned) [Example 8, 7-[D(-)-α-(4-ethyl-2,3-dioxopiperazin-1-yl-carbonylamino)-p-hydroxyphenylacetamido]-3-(5-methyl-1,3,4-thiadiazol-2-yl-thiomethyl)-3-cephem-4-carboxylic acid]", "values": [
      {"measurement": "MIC", "setting": "[18]; [24]", "value": 25, "unit": "mg/L"}
    ]},
    {"smiles": "CCN1CCN(C(=O)N[C@@H](C(=O)NC2C(=O)N3C(C(=O)O)=C(CSc4nncs4)CS[C@H]23)c2ccc(O)c(Cl)c2)C(=O)C1=O", "note": "(single isomer, unassigned) [II, 7-[D(-)-α-(4-ethyl-2,3-dioxopiperazin-1-yl-carbonylamino)-m-chloro-p-hydroxyphenylacetamido]-3-(1,3,4-thiadiazol-2-yl-thiomethyl)-3-cephem-4-carboxylic acid]", "values": [
      {"measurement": "MIC", "setting": "[1]; Pseudomonas strain C73-63, in vitro, sodium salts, read-out: MIC", "value": 1.56, "unit": "mg/L"},
      {"measurement": "MIC", "setting": "[2]; Salmonella enteritidis No. 11, in vitro, sodium salts, read-out: MIC", "value": "< 0.05", "unit": "mg/L"},
      {"measurement": "MIC", "setting": "[3]; Enterobacter strain C73-17, in vitro, sodium salts, read-out: MIC", "value": 12.5, "unit": "mg/L"},
      {"measurement": "MIC", "setting": "[4]; Bacillus substilis ATCC 6633, in vitro, sodium salts, read-out: MIC", "value": 0.39, "unit": "mg/L"},
      {"measurement": "MIC", "setting": "[5]; Staphylococcus aureus FDA 209NIH, P-J C-1, in vitro, sodium salts, read-out: MIC", "value": 0.2, "unit": "mg/L"},
      {"measurement": "MIC", "setting": "[6]; Vibrio parahaemolyticus K - 5, in vitro, sodium salts, read-out: MIC", "value": 12.5, "unit": "mg/L"},
      {"measurement": "MIC", "setting": "[7]; Streptococcus faecalis ATCC 8043, in vitro, sodium salts, read-out: MIC", "value": 1.56, "unit": "mg/L"},
      {"measurement": "MIC", "setting": "[8]; Klebsilla pneumoniae, in vitro, sodium salts, read-out: MIC", "value": 0.78, "unit": "mg/L"},
      {"measurement": "MIC", "setting": "[9]", "value": "< 0.05", "unit": "mg/L"},
      {"measurement": "MIC", "setting": "[10]; Vibrio parahaemolyticus K - 3, in vitro, sodium salts, read-out: MIC", "value": 12.5, "unit": "mg/L"},
      {"measurement": "dose excreted at 6 h", "setting": "[11]; 20 mg/kg", "value": 24, "unit": "%"},
      {"measurement": "concentration at 0.5 h", "setting": "[11]; [23]", "value": 28.8, "unit": "µg/mL"},
      {"measurement": "MIC", "setting": "[12]; Salmonella strain C73-1, in vitro, sodium salts, read-out: MIC", "value": 0.78, "unit": "mg/L"},
      {"measurement": "MIC", "setting": "[13]; Pseudomonas strain C73-83, in vitro, sodium salts, read-out: MIC", "value": 12.5, "unit": "mg/L"},
      {"measurement": "MIC", "setting": "[14]; Salmonella strain C 73-30, in vitro, sodium salts, read-out: MIC", "value": 1.56, "unit": "mg/L"},
      {"measurement": "MIC", "setting": "[15]; Proteus morganii kono, in vitro, sodium salts, read-out: MIC", "value": 3.13, "unit": "mg/L"},
      {"measurement": "MIC", "setting": "[16]; Serratia strain No. 2, in vitro, sodium salts, read-out: MIC", "value": 6.25, "unit": "mg/L"},
      {"measurement": "MIC", "setting": "[17]; Serratia strain No. 1, in vitro, sodium salts, read-out: MIC", "value": 3.13, "unit": "mg/L"},
      {"measurement": "MIC", "setting": "[18]; Pseudomonas aeruginosa C73-2, in vitro, sodium salts, read-out: MIC", "value": 6.25, "unit": "mg/L"},
      {"measurement": "MIC", "setting": "[19]; Escherichia coli C 73-1, in vitro, sodium salts, read-out: MIC", "value": 1.56, "unit": "mg/L"},
      {"measurement": "ED50 in Pseudomonas infection in mice", "setting": "[20]", "value": 2.2, "unit": "mg/mouse"},
      {"measurement": "MIC", "setting": "[21]; Proteus morganii C73-23, in vitro, sodium salts, read-out: MIC", "value": 6.25, "unit": "mg/L"},
      {"measurement": "MIC", "setting": "[22]; Escherichia coli C 73-4, in vitro, sodium salts, read-out: MIC", "value": 1.56, "unit": "mg/L"}
    ]}
  ]
}
